# Test results: paper PMC10023972, “Saturated fatty acid– and/or monounsaturated fatty acid–containing phosphatidic acids selectively interact with heat shock protein 27” (The Journal of Biological Chemistry, 2023)
# Target: T1, HSP27 (heat shock protein 27, HSPβ1; 6×His-HSP27) (Homo sapiens, UniProt P04792)
# T1 construct: gene HSPB1; full length (205 aa), N-terminal 6×His tag (pET-28a), E. coli Rosetta 2 (DE3), Ni-NTA, ~30 kDa band; large oligomer (more than octamer)
# Assay: liposome co-sedimentation (ultracentrifugation), Western blot densitometry
# Assay type: binding
# Details: unreliable; extrapolated beyond the 0-25 μM range; PS in liposomes (PS/egg PC/cholesterol 20/50/30 mol%), 0.1 μM protein, pH 7.4, 4 °C
# T1 sequence (P04792 whole entry): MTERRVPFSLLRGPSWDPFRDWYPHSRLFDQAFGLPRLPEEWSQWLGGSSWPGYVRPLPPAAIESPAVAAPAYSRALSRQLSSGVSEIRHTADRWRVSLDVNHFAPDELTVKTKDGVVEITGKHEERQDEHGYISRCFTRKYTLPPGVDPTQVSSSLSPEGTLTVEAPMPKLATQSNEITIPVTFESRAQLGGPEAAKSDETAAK
compound,measurement,value
"CCCCCCCCCCCCCCCC(=O)OC[C@H](COP(=O)(O)OC[C@H](N)C(=O)O)OC(=O)CCCCCCCCCCCCCCC [16:0/16:0-PS, 1,2-dipalmitoyl-sn-glycero-3-phosphoserine]",extrapolated Kd,~ 100 μM
